{
  "source": "patent US20250295636A1",
  "about": "“METHOD FOR PREPARING 4-[5-[BIS(2-CHLOROETHYL)AMINO]-1-METHYL-1H-BENZO[D]IMIDAZOL-2-YL]BUTYRIC ACID ALKYL ESTERS AND FORMYLATED DERIVATIVES” (HERAEUS PRECIOUS METALS GMBH & CO. KG, priority 2022, published 2025)",
  "type_in_all_cases": "cell-based",
  "key": {"Caki-1": {"test_system": "Caki-1", "test": "MTS cell proliferation assay, Caki-1 (kidneys)", "conditions": "Homo sapiens, 72 hours at 37° C., 490 nm", "protocol": "(§1) Selected cell lines were incubated for 72 hours at 37° C. with different concentrations of 4-[5-[bis(2-chloroethyl)amino]-4-formyl-1-methyl-1H-benzo[d]imidazol-2-yl]butyric acid (concentrations ranging from 1.5 μmol to 5 mmol per liter). The cells were then incubated with MTS solution (Promega) for 1 hour, and the effects of 4-[5-[bis(2-chloroethyl)amino]-4-formyl-1-methyl-1H-benzo[d]imidazol-2-yl]butyric acid on cell proliferation were determined colorimetrically at 490 nm. Cell growth was expressed as a percentage of the corresponding control (0.5 wt. % dimethyl sulfoxide in water)."}, "BxPC-3": {"test_system": "BxPC-3", "test": "MTS cell proliferation assay, BxPC-3 (pancreas)", "conditions": "Homo sapiens, 72 hours at 37° C., 490 nm", "protocol": "as §1"}, "A375": {"test_system": "A375", "test": "MTS cell proliferation assay, A375 (skin)", "conditions": "Homo sapiens, A-375, 72 hours at 37° C., 490 nm", "protocol": "as §1"}, "[1]": {"test_system": "skin cancer, kidney cancer, lung cancer, brain tumors and pancreatic cancer", "test": "cancer-cell-killing or cancer-cell-growth-inhibiting effect (summary of example 3)", "conditions": "summary statement; compound and its pharmaceutically acceptable salts; concentration at which 50% of the cancer cells are killed", "protocol": "IC50 stands for “inhibition concentration,” at which 50% of the cancer cells are killed.\nas §1"}, "Calu-6": {"test_system": "Calu-6", "test": "MTS cell proliferation assay, Calu-6 (lung)", "conditions": "Homo sapiens, 72 hours at 37° C., 490 nm", "protocol": "as §1"}, "U87MG": {"test_system": "U87MG", "test": "MTS cell proliferation assay, U87MG (brain)", "conditions": "Homo sapiens, U-87 MG, 72 hours at 37° C., 490 nm", "protocol": "as §1"}},
  "data": [
    {"smiles": "Cn1c(CCCC(=O)O)nc2c(C=O)c(N(CCCl)CCCl)ccc21", "note": "[4-[5-[bis(2-chloroethyl)amino]-4-formyl-1-methyl-1H-benzo[d]imidazol-2-yl]butyric acid]", "values": [
      {"measurement": "IC50", "setting": "Caki-1", "value": 1600, "unit": "µM"},
      {"measurement": "IC50", "setting": "BxPC-3", "value": 740, "unit": "µM"},
      {"measurement": "IC50", "setting": "A375", "value": 1300, "unit": "µM"},
      {"measurement": "low IC50 concentration range", "setting": "[1]", "value": "one hundred"},
      {"measurement": "IC50", "setting": "Calu-6", "value": 1300, "unit": "µM"},
      {"measurement": "IC50", "setting": "U87MG", "value": 2900, "unit": "µM"}
    ]}
  ]
}
